Reference: ChEMBL document CHEMBL2074366, “Secretion of sparfloxacin from the human intestinal Caco-2 cell line is altered by P-glycoprotein inhibitors” (Antimicrob Agents Chemother, 1998)

Molecular target: ATP-dependent translocase ABCB1 (Homo sapiens, UniProt P08183)
Test: TP_TRANSPORTER: transepithelial transport (basal to apical) in Caco-2 cells
Type: functional, cell-based

Chain of ATP-dependent translocase ABCB1 (P08183 whole entry): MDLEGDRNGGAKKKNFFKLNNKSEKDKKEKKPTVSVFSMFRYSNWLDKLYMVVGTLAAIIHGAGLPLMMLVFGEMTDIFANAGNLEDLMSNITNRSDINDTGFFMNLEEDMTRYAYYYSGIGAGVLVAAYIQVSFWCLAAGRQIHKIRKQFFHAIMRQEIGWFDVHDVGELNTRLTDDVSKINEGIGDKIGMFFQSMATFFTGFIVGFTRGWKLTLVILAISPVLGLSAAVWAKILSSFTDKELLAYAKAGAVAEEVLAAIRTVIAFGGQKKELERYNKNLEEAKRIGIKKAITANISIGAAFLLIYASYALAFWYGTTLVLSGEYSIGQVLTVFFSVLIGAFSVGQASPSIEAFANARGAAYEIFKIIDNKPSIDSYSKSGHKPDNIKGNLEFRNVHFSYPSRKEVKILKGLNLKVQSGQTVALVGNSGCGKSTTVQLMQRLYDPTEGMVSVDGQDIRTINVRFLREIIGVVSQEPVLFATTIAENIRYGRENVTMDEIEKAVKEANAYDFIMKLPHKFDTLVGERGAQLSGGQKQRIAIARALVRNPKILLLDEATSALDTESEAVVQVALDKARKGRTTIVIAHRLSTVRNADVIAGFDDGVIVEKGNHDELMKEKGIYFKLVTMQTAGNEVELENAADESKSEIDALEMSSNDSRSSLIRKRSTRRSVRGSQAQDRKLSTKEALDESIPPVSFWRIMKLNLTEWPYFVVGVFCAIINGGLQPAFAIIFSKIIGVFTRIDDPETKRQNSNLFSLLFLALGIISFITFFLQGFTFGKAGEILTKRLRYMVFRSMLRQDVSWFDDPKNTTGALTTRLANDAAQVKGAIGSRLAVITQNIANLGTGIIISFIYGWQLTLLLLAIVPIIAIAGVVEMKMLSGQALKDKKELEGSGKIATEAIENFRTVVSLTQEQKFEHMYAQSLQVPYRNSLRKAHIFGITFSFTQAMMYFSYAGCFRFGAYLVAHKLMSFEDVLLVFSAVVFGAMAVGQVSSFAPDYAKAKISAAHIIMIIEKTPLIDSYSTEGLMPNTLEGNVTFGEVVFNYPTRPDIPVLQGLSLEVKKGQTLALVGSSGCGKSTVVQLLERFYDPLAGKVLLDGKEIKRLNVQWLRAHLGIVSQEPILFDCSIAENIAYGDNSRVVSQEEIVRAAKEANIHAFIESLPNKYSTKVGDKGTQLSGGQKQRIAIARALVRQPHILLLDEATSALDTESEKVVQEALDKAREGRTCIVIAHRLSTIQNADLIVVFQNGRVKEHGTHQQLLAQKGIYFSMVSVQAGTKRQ

Structure (SMILES): C[C@@H]1CN(c2c(F)c(N)c3c(=O)c(C(=O)O)cn(C4CC4)c3c2F)C[C@H](C)N1 [SPARFLOXACIN]
- Activity: substrate [+]
